Reference: patent EP2982368A1, “Small molecule compounds displacing focal adhesion core components” (Universität Konstanz, priority 2014, dated 2016)

What was measured:
[1] = biological target: T1, Kinase domain of human FAK (Homo sapiens, UniProt Q05397, P410G); test: ELISA-based in vitro kinase assay; assay type: biochemical; conditions: poly-Glu-Tyr substrate, 1 h at 30°C
T1 construct: Kinase domain of human FAK (aa 410-689, hFAK-KD) was expressed; 6xHis (N); made in house; host or cells: Sf9 insect cells (baculovirus, pVL1392)
T1 sequence (Q05397 410-689 P410G): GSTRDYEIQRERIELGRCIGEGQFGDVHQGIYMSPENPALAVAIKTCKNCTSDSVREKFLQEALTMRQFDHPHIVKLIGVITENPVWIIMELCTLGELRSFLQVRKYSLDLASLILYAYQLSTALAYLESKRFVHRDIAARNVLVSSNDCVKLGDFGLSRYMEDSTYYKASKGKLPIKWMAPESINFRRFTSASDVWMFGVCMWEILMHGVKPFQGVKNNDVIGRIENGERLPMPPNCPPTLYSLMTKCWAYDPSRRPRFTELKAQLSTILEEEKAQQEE
Description: Kinase domain of human FAK (aa 410-689, hFAK-KD) was expressed with an amino-terminal 6xHis-tag and a carboxy-terminal Nef epitope-tag. FAK residue 410 was changed from proline to glycine. Expression of the fusion protein was performed in Sf9 insect cells using the pVL1392 transfer vector and the BacuIoGold Transfection Kit (BD Biosciences, San Diego, USA). Cells were lysed in Sf9 lysis buffer (0.33% Tween20, 1 mM EDTA, 500 mM NaCl, 100 µM PMSF, 1 mM β-Mercaptoethanol in 25 mM TrisHCl, pH 7.5) for 20 min at 4°C. Subsequently, the lysate was cleared by centrifugation and hFAK-KD was purified from the soluble fraction under native conditions by FPLC using a HisTrapFFcrude 1 mL column (GE Healthcare, Munich, Germany)
A microtiter plate was coated with 2 µg/well of poly(Glu:Tyr) (4:1) copolymer (Sigma-Aldrich, Steinheim, Germany) as artificial FAK substrate and blocked with 2% BSA in PBS with 0.01% Tween20. Purified hFAK-KD together with 100 µM ATP were added in kinase buffer (125 mM NaCl, 48 mM MgCl2, 50 mM HEPES, pH 7.5) in presence of various concentrations of test compounds and incubated for 1 h at 30°C. The reaction was stopped by the addition of EDTA and wells were extensively washed with 0.05% Tween20 in PBS. Phosphorylated substrate was detected by monoclonal anti-phosphotyrosine antibody followed by peroxidasecoupled goat anti-mouse antibody. […] The absorbance was measured at 450 nm.

FAK = biological target: T2, FAK (Mus musculus, UniProt P34152); test: Reversibility of FAK displacement after compound washout; assay type: cell-based; conditions: 4 µM for 1 h
T2 construct: expressed in transfected cells; host or cells: FAK-/- (p53-/-) mouse embryonic fibroblasts stably re-expressing GFP-FAK
T2 sequence (P34152 whole entry): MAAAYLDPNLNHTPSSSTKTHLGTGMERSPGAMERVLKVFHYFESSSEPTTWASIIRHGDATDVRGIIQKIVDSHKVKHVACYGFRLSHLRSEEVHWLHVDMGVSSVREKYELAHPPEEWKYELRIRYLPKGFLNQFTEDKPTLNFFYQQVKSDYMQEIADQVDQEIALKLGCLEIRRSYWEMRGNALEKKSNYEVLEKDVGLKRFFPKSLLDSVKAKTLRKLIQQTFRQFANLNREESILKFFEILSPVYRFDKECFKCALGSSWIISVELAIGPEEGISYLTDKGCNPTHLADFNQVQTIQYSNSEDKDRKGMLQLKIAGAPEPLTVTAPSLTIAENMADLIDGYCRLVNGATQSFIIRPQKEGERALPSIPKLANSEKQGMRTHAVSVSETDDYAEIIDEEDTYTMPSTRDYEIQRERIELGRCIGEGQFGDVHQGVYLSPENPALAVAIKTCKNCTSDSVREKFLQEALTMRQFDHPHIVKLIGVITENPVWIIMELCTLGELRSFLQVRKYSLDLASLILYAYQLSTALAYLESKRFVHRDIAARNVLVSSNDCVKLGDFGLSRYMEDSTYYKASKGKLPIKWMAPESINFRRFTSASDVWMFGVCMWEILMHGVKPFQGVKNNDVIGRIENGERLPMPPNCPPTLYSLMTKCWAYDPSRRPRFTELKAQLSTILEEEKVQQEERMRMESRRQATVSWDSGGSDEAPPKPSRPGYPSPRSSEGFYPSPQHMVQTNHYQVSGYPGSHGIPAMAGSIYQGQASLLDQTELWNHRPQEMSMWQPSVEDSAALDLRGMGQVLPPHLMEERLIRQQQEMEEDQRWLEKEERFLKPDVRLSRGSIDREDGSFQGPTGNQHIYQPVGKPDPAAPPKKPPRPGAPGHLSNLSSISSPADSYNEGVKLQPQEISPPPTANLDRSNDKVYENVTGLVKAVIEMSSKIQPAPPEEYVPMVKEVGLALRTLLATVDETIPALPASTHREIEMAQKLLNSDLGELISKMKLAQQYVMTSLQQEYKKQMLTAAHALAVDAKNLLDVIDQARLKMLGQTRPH
Description: In order to analyze whether FAK or its binding partner paxillin are degraded after displacement, serum-starved GFP-FAK MEFs were stimulated with normal growth medium in presence of increasing concentrations of Mb31. After 30 min cells were lysed and protein levels were determined by immunoblotting. […] In line with this, in vitro activity of purified FAK kinase domain was not altered in presence of Mb31 (Figure 8). […] Considering, that paxillin and FAK are not degraded in Mb31 treated GFP-FAK MEFs the inventors further investigated whether FAK displacement is reversible. GFP-FAK MEFs were seeded on fibronectin and treated with 4 µM Mb31 for 1 h. Following compound washout, cells were incubated for 1 h and fixed. […] To strengthen the hypothesis of FAK relocalization, in a second approach de novo protein synthesis was blocked with cycloheximide. Again, FAK containing focal adhesions could be clearly identified in the cell periphery.
MEFs were seeded on fibronectin fragment (4 µg/ml in PBS) in multi-well plates (Greiner Bio-One) and incubated for 4 h to allow spreading. Cells were fixed and permeabilized with MeOH at -20°C after pre-fixation with 4% paraformaldehyde. […] Cells were washed again with PBS to remove excess antibodies and were imaged using a Leica AF6000LX fluorescence microscope. […]

paxillin = biological target: T3, paxillin (Mus musculus, UniProt Q8VI36); test: Paxillin displacement in FAK-deficient MEFs (immunostaining, confocal microscopy); assay type: cell-based
T3 construct: endogenous in cells; host or cells: FAK-/- mouse embryonic fibroblasts
T3 sequence (Q8VI36 whole entry): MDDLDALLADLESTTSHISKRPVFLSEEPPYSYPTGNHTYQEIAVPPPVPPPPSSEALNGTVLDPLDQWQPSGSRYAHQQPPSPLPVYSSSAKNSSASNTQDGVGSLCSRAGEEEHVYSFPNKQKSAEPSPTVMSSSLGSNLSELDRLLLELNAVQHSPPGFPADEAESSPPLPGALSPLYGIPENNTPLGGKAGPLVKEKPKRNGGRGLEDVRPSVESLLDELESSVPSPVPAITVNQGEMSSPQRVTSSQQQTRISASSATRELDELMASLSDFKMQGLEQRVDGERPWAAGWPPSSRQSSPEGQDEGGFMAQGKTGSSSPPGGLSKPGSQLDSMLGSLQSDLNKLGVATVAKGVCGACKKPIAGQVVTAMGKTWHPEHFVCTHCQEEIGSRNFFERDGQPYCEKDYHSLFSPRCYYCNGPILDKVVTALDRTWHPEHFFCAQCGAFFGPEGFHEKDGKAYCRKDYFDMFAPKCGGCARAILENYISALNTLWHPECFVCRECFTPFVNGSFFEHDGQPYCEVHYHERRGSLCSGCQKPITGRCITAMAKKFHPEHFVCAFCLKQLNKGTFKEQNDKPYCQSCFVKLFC

NIH-v-Src fibroblasts = test: EGF-stimulated cell migration of transformed cells; assay type: cell-based; conditions: 10 ng/ml EGF, tracked 6 h before and 6 h after addition
Description: Image J was used to automatically quantify FAK-containing focal adhesions due to local maxima of fluorescence intensity in the GFP-channel (5 to 70 pixel). The number of cells was automatically counted in the Hoechst channel. To test reproducibility of the system 40 control wells were quantified wherein four positions for each well were imaged. […] GFP-FAK mouse embryonic fibroblasts were seeded on fibronectin and incubated for 1 h with the indicated concentrations of the small compounds, respectively. […] GFP-FAK mouse embryonic fibroblasts were seeded on fibronectin and serum-starved overnight. The indicated concentrations of Mb31 were applied for 30 min. Cells were lysed and analyzed for paxillin and FAK protein level as well as FAK Tyr397 phosphorylation. […] The purified kinase domain of FAK was incubated with increasing amounts of Mb31 for 1 h at 30°C together with poly-Glu-Tyr as a FAK substrate. […] Serum-starved GFP-FAK mouse embryonic fibroblasts were stimulated with normal growth medium and incubated for 5 h with the indicated concentrations of the small molecule compounds, respectively. Cell viability was assessed by MTT assay. […] GFP-FAK MEFs were seeded on fibronectin and serum-starved overnight. Migration was stimulated by replacing the medium with normal growth medium. Migration of single cells was tracked for 8 h in 30 min intervals. Migration was recorded from cells that were cultured without serum (A), with serum (B) or with serum in the presence of 3 µM Mb31 (C). […] (A) GFP-FAK MEFs were seeded and serum-starved as in Figure 10. Cell migration was stimulated with normal growth medium and single cells were tracked for 5 h. […] Mouse embryonic fibroblasts (MEFs) were transfected with talin-mCherry and talin dynamics analyzed in focal adhesions using fluorescence recovery after photobleaching (FRAP). […] (C) Wound closure was microscopically analyzed and evaluated using ImageJ software.
To further determine whether Mb31 interferes with cell motility, GFP-FAK MEFs were serum-stimulated and migration was quantified on a single cell basis (Figures 11 and 12). […]

in vitro activity of purified FAK kinase domain (FAK substrate phosphorylation) [1]: not altered | FAK displacement in treated cells (FAK; before washout): completely displaced | FAK localization after compound washout (FAK; washout, 1 h incubation): FAK relocalized to focal adhesions | paxillin displacement in FAK knockout MEFs (paxillin; 30 min): efficiently displaced | concentration efficiently displacing paxillin (paxillin; FAK-/- MEF cells, 30 min, 1, 10, or 20 µM): > 1 µM
Compound: O=[N+]([O-])C=Cc1cc(Br)cs1 [FootLocker 1, 4-bromo-2-(2-nitrovinyl)thiophene]
migration of EGF-stimulated cells (NIH-v-Src fibroblasts): efficiently inhibit the migration
